Measurements taken from the supplement of paper PMC10307832.

Key:
Experiment in all cases: relative viability (nuclei count vs DMSO), 5 days (fraction); higher = more cells survive
201T = test system: 201T
In short: (§1)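 Nuclei were stained with Hoechst during a one-step fixation (final 0.05% Triton X-100, 1% formaldehyde, 1 ug/ml Hoechst) carried out 5 days after dosing, then counted on 4× images. The cells, lung cancer lines in 1536-well plates, had been dosed by pin tool the day after seeding with one drug alone or a fixed anchor-drug dose plus five library-drug doses (not always all listed) in √10 steps. Relative viability is the nuclei count in treated wells divided by that in vehicle wells, and each value is the median of duplicate plates.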

COR-L 105 = test system: COR-L 105
In short: as §1

ChaGo-K-1 = test system: ChaGo-K-1
In short: as §1

EKVX = test system: EKVX
In short: as §1

H3255 = test system: H3255
In short: as §1

HARA = test system: HARA
In short: as §1

HCC-827 = test system: HCC-827
In short: as §1

HOP-62 = test system: HOP-62
In short: as §1

LCLC-103H = test system: LCLC-103H
In short: as §1

LOU-NH91 = test system: LOU-NH91
In short: as §1

NCI-H1975 = test system: NCI-H1975
In short: as §1

NCI-H2126 = test system: NCI-H2126
In short: as §1

NCI-H2228 = test system: NCI-H2228
In short: as §1

NCI-H23 = test system: NCI-H23
In short: as §1

NCI-H2405 = test system: NCI-H2405
In short: as §1

NCI-H3122 = test system: NCI-H3122
In short: as §1

NCI-H596 = test system: NCI-H596
In short: as §1

NCI-H650 = test system: NCI-H650
In short: as §1

NCI-H661 = test system: NCI-H661
In short: as §1

NCI-H727 = test system: NCI-H727
In short: as §1

PC-3 [JPC-3] = test system: PC-3 [JPC-3]
In short: as §1

SK-LU-1 = test system: SK-LU-1
In short: as §1

SMILES: CN1CCN(CCOc2cc(OC3CCOCC3)c3c(Nc4c(Cl)ccc5c4OCO5)ncnc3c2)CC1 [Saracatinib] + CS(=O)(=O)N1CCN(Cc2cc3nc(-c4cccc5[nH]ncc45)nc(N4CCOCC4)c3s2)CC1 [Pictilisib] (partner 1 µM)
- relative viability (201T; first compound 0.02 µM): 0.702
- relative viability (201T; first compound 0.2 µM): 0.627
- relative viability (201T; first compound 0.6325 µM): 0.603
- relative viability (201T; first compound 2 µM): 0.554
- relative viability (COR-L 105; first compound 0.02 µM): 0.445
- relative viability (COR-L 105; first compound 0.2 µM): 0.331
- relative viability (COR-L 105; first compound 0.6325 µM): 0.361
- relative viability (COR-L 105; first compound 2 µM): 0.244
- relative viability (ChaGo-K-1; first compound 0.02 µM): 0.784
- relative viability (ChaGo-K-1; first compound 0.2 µM): 0.521
- relative viability (ChaGo-K-1; first compound 0.6325 µM): 0.903
- relative viability (ChaGo-K-1; first compound 2 µM): 0.379
- relative viability (EKVX; first compound 0.02 µM): 0.417
- relative viability (EKVX; first compound 0.2 µM): 0.409
- relative viability (EKVX; first compound 0.6325 µM): 0.366
- relative viability (EKVX; first compound 2 µM): 0.175
- relative viability (H3255; first compound 0.02 µM): 0.432
- relative viability (H3255; first compound 0.2 µM): 0.391
- relative viability (H3255; first compound 0.6325 µM): 0.352
- relative viability (H3255; first compound 2 µM): 0.156
- relative viability (HARA; first compound 0.02 µM): 0.37
- relative viability (HARA; first compound 0.6325 µM): 0.374
- relative viability (HARA; first compound 2 µM): 0.118
- relative viability (HCC-827; first compound 0.02 µM): 1.1
- relative viability (HCC-827; first compound 0.2 µM): 0.499
- relative viability (HCC-827; first compound 0.6325 µM): 0.501
- relative viability (HCC-827; first compound 2 µM): 0.323
- relative viability (HOP-62; first compound 0.02 µM): 0.548
- relative viability (HOP-62; first compound 0.2 µM): 0.685
- relative viability (HOP-62; first compound 0.6325 µM): 1.05
- relative viability (HOP-62; first compound 2 µM): 0.605
- relative viability (LCLC-103H; first compound 0.02 µM): 0.547
- relative viability (LCLC-103H; first compound 0.2 µM): 0.671
- relative viability (LCLC-103H; first compound 0.6325 µM): 0.649
- relative viability (LCLC-103H; first compound 2 µM): 0.455
- relative viability (LOU-NH91; first compound 0.02 µM): 0.535
- relative viability (LOU-NH91; first compound 0.2 µM): 0.442
- relative viability (LOU-NH91; first compound 0.6325 µM): 0.502
- relative viability (LOU-NH91; first compound 2 µM): 0.437
- relative viability (NCI-H1975; first compound 0.02 µM): 0.331
- relative viability (NCI-H1975; first compound 0.6325 µM): 0.298
- relative viability (NCI-H1975; first compound 2 µM): 0.174
- relative viability (NCI-H2126; first compound 0.02 µM): 0.475
- relative viability (NCI-H2126; first compound 0.2 µM): 0.498
- relative viability (NCI-H2126; first compound 0.6325 µM): 0.529
- relative viability (NCI-H2126; first compound 2 µM): 0.429
- relative viability (NCI-H2228; first compound 0.02 µM): 0.385
- relative viability (NCI-H2228; first compound 0.2 µM): 0.206
- relative viability (NCI-H2228; first compound 0.6325 µM): 0.244
- relative viability (NCI-H2228; first compound 2 µM): 0.207
- relative viability (NCI-H23; first compound 0.02 µM): 0.517
- relative viability (NCI-H23; first compound 0.6325 µM): 0.424
- relative viability (NCI-H23; first compound 2 µM): 0.35
- relative viability (NCI-H2405; first compound 0.02 µM): 0.441
- relative viability (NCI-H2405; first compound 0.2 µM): 0.366
- relative viability (NCI-H2405; first compound 0.6325 µM): 0.352
- relative viability (NCI-H2405; first compound 2 µM): 0.22
- relative viability (NCI-H3122; first compound 0.02 µM): 0.573
- relative viability (NCI-H3122; first compound 0.6325 µM): 0.586
- relative viability (NCI-H3122; first compound 2 µM): 0.454
- relative viability (NCI-H596; first compound 0.02 µM): 0.218
- relative viability (NCI-H596; first compound 0.2 µM): 0.429
- relative viability (NCI-H596; first compound 0.6325 µM): 0.435
- relative viability (NCI-H596; first compound 2 µM): 0.319
- relative viability (NCI-H650; first compound 0.02 µM): 0.771
- relative viability (NCI-H650; first compound 0.2 µM): 0.837
- relative viability (NCI-H650; first compound 0.6325 µM): 0.871
- relative viability (NCI-H650; first compound 2 µM): 0.86
- relative viability (NCI-H661; first compound 0.02 µM): 0.452
- relative viability (NCI-H661; first compound 0.2 µM): 0.271
- relative viability (NCI-H661; first compound 0.6325 µM): 0.314
- relative viability (NCI-H661; first compound 2 µM): 0.241
- relative viability (NCI-H727; first compound 0.02 µM): 0.295
- relative viability (NCI-H727; first compound 0.2 µM): 0.423
- relative viability (NCI-H727; first compound 0.6325 µM): 0.354
- relative viability (NCI-H727; first compound 2 µM): 0.407
- relative viability (PC-3 [JPC-3]; first compound 0.02 µM): 0.782
- relative viability (PC-3 [JPC-3]; first compound 0.2 µM): 0.613
- relative viability (PC-3 [JPC-3]; first compound 0.6325 µM): 0.475
- relative viability (PC-3 [JPC-3]; first compound 2 µM): 0.395
- relative viability (SK-LU-1; first compound 0.02 µM): 0.443
- relative viability (SK-LU-1; first compound 0.2 µM): 0.419
- relative viability (SK-LU-1; first compound 0.6325 µM): 0.388
- relative viability (SK-LU-1; first compound 2 µM): 0.226
